ChEMBL document CHEMBL1201861, “Genomics of Drug Sensitity in Cancer screening data, Wellcome Trust Sanger Institute”
pIC50: −log10 of the molar value. Counter-ions that a name gives are not always drawn.

What was measured:
Assay in all cases: cells
SCC-4 = type: functional, cell-based, Homo sapiens;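 further: growth inhibition of human SCC-4 cells, read out as cell viability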
Description: SANGER: Inhibition of human SCC-4 cell growth in a cell viability assay.

DOK = type: functional, cell-based, Homo sapiens;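 further: cell viability assay read-out, values reflect inhibition of cell growth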
Description: SANGER: Inhibition of human DOK cell growth in a cell viability assay.

NCI-H1793 = type: functional, cell-based, Homo sapiens;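 further: cell growth inhibition, read out by a cell viability assay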
Description: SANGER: Inhibition of human NCI-H1793 cell growth in a cell viability assay.

NCI-H2122 = type: functional, cell-based, Homo sapiens;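 further: growth inhibition of the cells, read out with a cell viability assay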
Description: SANGER: Inhibition of human NCI-H2122 cell growth in a cell viability assay.

NCI-H292 = type: functional, cell-based, Homo sapiens;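 further: growth inhibition of NCI-H292 cells, read out with a cell viability assay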
Description: SANGER: Inhibition of human NCI-H292 cell growth in a cell viability assay.

A2058 = type: functional, cell-based, Homo sapiens;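 further: reduction of A2058 cell growth, read out with a viability assay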
Description: SANGER: Inhibition of human A2058 cell growth in a cell viability assay.

NCI-H358 = type: functional, cell-based, Homo sapiens;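 further: growth inhibition of NCI-H358 human cells, read out with a cell viability assay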
Description: SANGER: Inhibition of human NCI-H358 cell growth in a cell viability assay.

HuO-3N1 = type: functional, cell-based, Homo sapiens;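 further: cell viability readout used to measure how strongly compounds suppress proliferation of human HuO-3N1 cells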
Description: SANGER: Inhibition of human HuO-3N1 cell growth in a cell viability assay.

SCC-3 = type: functional, cell-based, Homo sapiens;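 further: cell viability assay measuring inhibition of SCC-3 cell growth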
Description: SANGER: Inhibition of human SCC-3 cell growth in a cell viability assay.

COR-L105 = type: functional, cell-based, Homo sapiens;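 further: cell growth inhibition determined with a viability assay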
Description: SANGER: Inhibition of human COR-L105 cell growth in a cell viability assay.

OE33 = type: functional, cell-based, Homo sapiens;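 further: growth inhibition of human OE33 cells, measured by a cell viability assay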
Description: SANGER: Inhibition of human OE33 cell growth in a cell viability assay.

HOP-92 = type: functional, cell-based, Homo sapiens;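 further: cell viability readout, with IC50 reflecting inhibition of HOP-92 cell growth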
Description: SANGER: Inhibition of human HOP-92 cell growth in a cell viability assay.

SW780 = type: functional, cell-based, Homo sapiens;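 further: growth inhibition of the cells, read out with a cell viability assay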
Description: SANGER: Inhibition of human SW780 cell growth in a cell viability assay.

HTC-C3 = type: functional, cell-based, Homo sapiens;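 further: inhibition of cell growth, read out with a cell viability assay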
Description: SANGER: Inhibition of human HTC-C3 cell growth in a cell viability assay.

OPM-2 = type: functional, cell-based, Homo sapiens;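 further: growth of OPM-2 cells measured with a viability assay, IC50 for suppression of proliferation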
Description: SANGER: Inhibition of human OPM-2 cell growth in a cell viability assay.

NCI-H596 = type: functional, cell-based, Homo sapiens;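 further: growth inhibition of NCI-H596 cells, read out with a cell viability assay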
Description: SANGER: Inhibition of human NCI-H596 cell growth in a cell viability assay.

SK-MM-2 = type: functional, cell-based, Homo sapiens;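 further: growth inhibition of human SK-MM-2 cells, read out with a cell viability assay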
Description: SANGER: Inhibition of human SK-MM-2 cell growth in a cell viability assay.

A2780 = type: functional, cell-based, Homo sapiens;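 further: growth inhibition of A2780 cells, read out with a cell viability assay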
Description: SANGER: Inhibition of human A2780 cell growth in a cell viability assay.

A-427 = type: functional, cell-based, Homo sapiens;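 further: growth inhibition of human A-427 cells, read out by a cell viability assay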
Description: SANGER: Inhibition of human A427 cell growth in a cell viability assay.

COLO-679 = type: functional, cell-based, Homo sapiens
Description: SANGER: Inhibition of human COLO-679 cell growth in a cell viability assay.

HCT-15 = type: functional, cell-based, Homo sapiens;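 further: cell viability readout, IC50 reflecting suppression of HCT-15 cell growth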
Description: SANGER: Inhibition of human HCT-15 cell growth in a cell viability assay.

SW1710 = type: functional, cell-based, Homo sapiens;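 further: growth inhibition of SW1710 cells, determined with a cell viability assay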
Description: SANGER: Inhibition of human SW1710 cell growth in a cell viability assay.

CaR-1 = type: functional, cell-based, Homo sapiens;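 further: growth inhibition of human CaR-1 cancer cells, read out with a cell viability assay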
Description: SANGER: Inhibition of human CaR-1 cell growth in a cell viability assay.

TCC-SUP = type: functional, cell-based, Homo sapiens;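 further: growth inhibition of TCC-SUP cells, read out with a cell viability assay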
Description: SANGER: Inhibition of human TCCSUP cell growth in a cell viability assay.

NCI-H1651 = type: functional, cell-based, Homo sapiens;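 further: Read-out is a cell viability assay, with IC50 expressing inhibition of NCI-H1651 cell growth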
Description: SANGER: Inhibition of human NCI-H1651 cell growth in a cell viability assay.

PC-14 = type: functional, cell-based, Homo sapiens;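 further: cell viability assay measuring inhibition of PC-14 cell growth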
Description: SANGER: Inhibition of human PC-14 cell growth in a cell viability assay.

BEN = type: functional, cell-based, Homo sapiens;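 further: growth inhibition of the BEN cell line, read out with a cell viability assay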
Description: SANGER: Inhibition of human BEN cell growth in a cell viability assay.

NCI-H650 = type: functional, cell-based, Homo sapiens;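 further: growth inhibition of NCI-H650 cells, read out by a viability assay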
Description: SANGER: Inhibition of human NCI-H650 cell growth in a cell viability assay.

SIMA = type: functional, cell-based, Homo sapiens;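 further: growth inhibition of SIMA cells, measured with a cell viability readout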
Description: SANGER: Inhibition of human SIMA cell growth in a cell viability assay.

RPMI-7951 = type: functional, cell-based, Homo sapiens
Description: SANGER: Inhibition of human RPMI-7951 cell growth in a cell viability assay.

U-118-MG = type: functional, cell-based, Homo sapiens
Description: SANGER: Inhibition of human U-118-MG cell growth in a cell viability assay.

CHL-1 = type: functional, cell-based, Homo sapiens;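 further: cell growth inhibition, read out with a cell viability assay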
Description: SANGER: Inhibition of human CHL-1 cell growth in a cell viability assay.

NCI-H1694 = type: functional, cell-based, Homo sapiens;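 further: cell viability assay measuring inhibition of growth in human NCI-H1694 cells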
Description: SANGER: Inhibition of human NCI-H1694 cell growth in a cell viability assay.

8305C = type: functional, cell-based, Homo sapiens
Description: SANGER: Inhibition of human 8305C cell growth in a cell viability assay.

EHEB = type: functional, cell-based, Homo sapiens;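 further: growth inhibition of human EHEB cells, read out with a cell viability assay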
Description: SANGER: Inhibition of human EHEB cell growth in a cell viability assay.

CMK = type: functional, cell-based, Homo sapiens;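 further: growth inhibition of CMK cells, read out as cell viability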
Description: SANGER: Inhibition of human CMK cell growth in a cell viability assay.

NCI-H441 = type: functional, cell-based, Homo sapiens;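 further: growth inhibition of NCI-H441 cells, read out with a cell viability assay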
Description: SANGER: Inhibition of human NCI-H441 cell growth in a cell viability assay.

CAL-27 = type: functional, cell-based, Homo sapiens;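 further: Viability-based readout, IC50 reflecting inhibition of CAL-27 cell growth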
Description: SANGER: Inhibition of human CAL-27 cell growth in a cell viability assay.

AGS = type: functional, cell-based, Homo sapiens;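 further: growth inhibition of AGS cells, determined with a cell viability assay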
Description: SANGER: Inhibition of human AGS cell growth in a cell viability assay.

SK-HEP1 = type: functional, cell-based, Homo sapiens, SK-HEP-1;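 further: cell viability readout used to quantify reduction in proliferation of human SK-HEP-1 cells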
Description: SANGER: Inhibition of human SK-HEP-1 cell growth in a cell viability assay.

GMS-10 = type: functional, cell-based, Homo sapiens;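 further: growth inhibition of GMS-10 cells, read out as cell viability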
Description: SANGER: Inhibition of human GMS-10 cell growth in a cell viability assay.

SR = type: functional, cell-based, Homo sapiens
Description: SANGER: Inhibition of human SR cell growth in a cell viability assay.

Hs-578T = type: functional, cell-based, Homo sapiens
Description: SANGER: Inhibition of human Hs-578-T cell growth in a cell viability assay.

T47D = type: functional, cell-based, Homo sapiens;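 further: growth inhibition of human T47D cells, measured with a cell viability assay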
Description: SANGER: Inhibition of human T47D cell growth in a cell viability assay.

NCI-H727 = type: functional, cell-based, Homo sapiens;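 further: growth inhibition of human NCI-H727 cells, read out with a cell viability assay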
Description: SANGER: Inhibition of human NCI-H727 cell growth in a cell viability assay.

UACC-893 = type: functional, cell-based, Homo sapiens
Description: SANGER: Inhibition of human UACC-893 cell growth in a cell viability assay.

NCI-H2030 = type: functional, cell-based, Homo sapiens;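 further: growth inhibition of human NCI-H2030 cells, read out by a cell viability assay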
Description: SANGER: Inhibition of human NCI-H2030 cell growth in a cell viability assay.

YKG-1 = type: functional, cell-based, Homo sapiens;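 further: cell growth inhibition, read out with a viability assay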
Description: SANGER: Inhibition of human YKG-1 cell growth in a cell viability assay.

Compound: COC1=CC(c2cc3ccccc3[nH]2)=N/C1=C\c1[nH]c(C)cc1C [OBATOCLAX MESYLATE]
- pIC50 (SCC-4; Homo sapiens, SCC-4): 5.67
- pIC50 (DOK; Homo sapiens, DOK): 6.07
- pIC50 (NCI-H1793; Homo sapiens, NCI-H1793): < 4.80
- pIC50 (NCI-H2122; Homo sapiens, NCI-H2122): 7.03
- pIC50 (NCI-H292; Homo sapiens, NCI-H292): 6.75
- pIC50 (A2058; Homo sapiens, A2058): 6.97
- pIC50 (NCI-H358; Homo sapiens, NCI-H358): 7.10
- pIC50 (HuO-3N1; Homo sapiens, HuO-3N1): 6.40
- pIC50 (SCC-3; Homo sapiens, SCC-3): 6.35
- pIC50 (COR-L105; Homo sapiens, COR-L105): 6.49
- pIC50 (OE33; Homo sapiens, OE33): 6.60
- pIC50 (HOP-92; Homo sapiens, HOP-92): 6.43
- pIC50 (SW780; Homo sapiens, SW780): 5.96
- pIC50 (HTC-C3; Homo sapiens, HTC-C3): 6.98
- pIC50 (OPM-2; Homo sapiens, OPM-2): 6.29
- pIC50 (NCI-H596; Homo sapiens, NCI-H596): 6.63
- pIC50 (SK-MM-2; Homo sapiens, SK-MM-2): 6.24
- pIC50 (A2780; Homo sapiens, A2780): 7.68
- pIC50 (A-427; Homo sapiens, A-427): 7.07
- pIC50 (COLO-679; Homo sapiens, COLO-679): > 7.20
- pIC50 (HCT-15; Homo sapiens, HCT-15): 6.65
- pIC50 (SW1710; Homo sapiens, SW1710): 7.40
- pIC50 (CaR-1; Homo sapiens, CaR-1): 5.40
- pIC50 (TCC-SUP; Homo sapiens, TCC-SUP): 5.90
- pIC50 (NCI-H1651; Homo sapiens, NCI-H1651): 6.30
- pIC50 (PC-14; Homo sapiens, PC-14): 7.28
- pIC50 (BEN; Homo sapiens, BEN): 5.97
- pIC50 (NCI-H650; Homo sapiens, NCI-H650): 6.55
- pIC50 (SIMA; Homo sapiens, SIMA): 6.31
- pIC50 (RPMI-7951; Homo sapiens, RPMI-7951): 6.29
- pIC50 (U-118-MG; Homo sapiens, U-118-MG): 6.39
- pIC50 (CHL-1; Homo sapiens, CHL-1): 7.31
- pIC50 (NCI-H1694; Homo sapiens, NCI-H1694): 6.04
- pIC50 (8305C; Homo sapiens, 8305C): 6.75
- pIC50 (EHEB; Homo sapiens, EHEB): 6.08
- pIC50 (CMK; Homo sapiens, CMK): 7.52
- pIC50 (NCI-H441; Homo sapiens, NCI-H441): 6.72
- pIC50 (CAL-27; Homo sapiens, CAL-27): 7.19
- pIC50 (AGS; Homo sapiens, AGS): 6.41
- pIC50 (SK-HEP1; Homo sapiens, SK-HEP1): 6.71
- pIC50 (GMS-10; Homo sapiens, GMS-10): 5.59
- pIC50 (SR; Homo sapiens, SR): > 7.20
- pIC50 (Hs-578T; Homo sapiens, Hs-578T): 6.74
- pIC50 (T47D; Homo sapiens, T47D): 5.91
- pIC50 (NCI-H727; Homo sapiens, NCI-H727): 7.09
- pIC50 (UACC-893; Homo sapiens, UACC-893): 5.54
- pIC50 (NCI-H2030; Homo sapiens, NCI-H2030): 6.64
- pIC50 (YKG-1; Homo sapiens, YKG-1): 6.79

Compound: BLEOMYCIN
- pIC50 (SCC-4; scc-4): 5.61
- pIC50 (DOK; dok): 3.49
- pIC50 (NCI-H1793; nci-h1793): 4.57
- pIC50 (NCI-H2122; nci-h2122): 6.29
- pIC50 (NCI-H292; nci-h292): 6.10
- pIC50 (A2058; a2058): 6.09
- pIC50 (NCI-H358; nci-h358): 6.43
- pIC50 (HuO-3N1; huo-3n1): 4.06
- pIC50 (SCC-3; scc-3): 5.49
- pIC50 (COR-L105; cor-l105): 5.13
- pIC50 (OE33; oe33): 5.56
- pIC50 (HOP-92; hop-92): 5.03
- pIC50 (SW780; sw780): 2.09
- pIC50 (HTC-C3; htc-c3): 4.11
- pIC50 (OPM-2; opm-2): 3.98
- pIC50 (NCI-H596; nci-h596): 4.87
- pIC50 (SK-MM-2; sk-mm-2): 4.63
- pIC50 (A2780; a2780): 6.66
- pIC50 (A-427; a-427): 9.93
- pIC50 (COLO-679; colo-679): 5.57
- pIC50 (HCT-15; hct-15): 7.02
- pIC50 (SW1710; sw1710): 6.53
- pIC50 (CaR-1; car-1): 5.35
- pIC50 (TCC-SUP; tcc-sup): 4.80
- pIC50 (NCI-H1651; nci-h1651): 6.30
- pIC50 (PC-14; pc-14): 6.74
- pIC50 (BEN; ben): 4.34
- pIC50 (NCI-H650; nci-h650): 9.23
- pIC50 (SIMA; sima): 5.16
- pIC50 (RPMI-7951; rpmi-7951): 5.91
- pIC50 (U-118-MG; u-118-mg): 4.18
- pIC50 (CHL-1; chl-1): 6.14
- pIC50 (NCI-H1694; nci-h1694): 4.36
- pIC50 (8305C; 8305c): 6.09
- pIC50 (EHEB; eheb): 5.79
- pIC50 (CMK; cmk): 4.83
- pIC50 (NCI-H441; nci-h441): 5.04
- pIC50 (CAL-27; cal-27): 5.09
- pIC50 (AGS; ags): 6.30
- pIC50 (SK-HEP1; sk-hep-1): 6.38
- pIC50 (GMS-10; gms-10): 2.68
- pIC50 (SR; sr): 7.53
- pIC50 (Hs-578T; hs-578-t): 3.46
- pIC50 (T47D; t47d): 3.77
- pIC50 (NCI-H727; nci-h727): 4.99
- pIC50 (UACC-893; uacc-893): 3.89
- pIC50 (NCI-H2030; nci-h2030): 5.28
- pIC50 (YKG-1; ykg-1): 5.49

Compound: Cc1cc([N+](=O)[O-])ccc1NS(=O)(=O)c1cc(Cl)ccc1Cl
- pIC50 (SCC-4; Homo sapiens, SCC-4): 4.86
- pIC50 (DOK; Homo sapiens, DOK): < 4.49
- pIC50 (NCI-H1793; Homo sapiens, NCI-H1793): < 4.49
- pIC50 (NCI-H2122; Homo sapiens, NCI-H2122): 5.93
- pIC50 (NCI-H292; Homo sapiens, NCI-H292): 4.95
- pIC50 (A2058; Homo sapiens, A2058): 5.69
- pIC50 (NCI-H358; Homo sapiens, NCI-H358): 5.20
- pIC50 (HuO-3N1; Homo sapiens, HuO-3N1): 4.87
- pIC50 (SCC-3; Homo sapiens, SCC-3): < 4.49
- pIC50 (COR-L105; Homo sapiens, COR-L105): 5.18
- pIC50 (OE33; Homo sapiens, OE33): 5.02
- pIC50 (HOP-92; Homo sapiens, HOP-92): 5.55
- pIC50 (SW780; Homo sapiens, SW780): 5.21
- pIC50 (HTC-C3; Homo sapiens, HTC-C3): 5.52
- pIC50 (OPM-2; Homo sapiens, OPM-2): < 4.49
- pIC50 (NCI-H596; Homo sapiens, NCI-H596): 5.10
- pIC50 (SK-MM-2; Homo sapiens, SK-MM-2): < 4.49
- pIC50 (A2780; Homo sapiens, A2780): 5.26
- pIC50 (A-427; Homo sapiens, A-427): 6.64
- pIC50 (COLO-679; Homo sapiens, COLO-679): 5.62
- pIC50 (HCT-15; Homo sapiens, HCT-15): 5.16
- pIC50 (SW1710; Homo sapiens, SW1710): 5.63
- pIC50 (CaR-1; Homo sapiens, CaR-1): < 4.49
- pIC50 (TCC-SUP; Homo sapiens, TCC-SUP): 5.32
- pIC50 (NCI-H1651; Homo sapiens, NCI-H1651): 5.40
- pIC50 (PC-14; Homo sapiens, PC-14): 4.70
- pIC50 (BEN; Homo sapiens, BEN): 5.64
- pIC50 (NCI-H650; Homo sapiens, NCI-H650): 5.56
- pIC50 (SIMA; Homo sapiens, SIMA): 4.86
- pIC50 (RPMI-7951; Homo sapiens, RPMI-7951): 4.53
- pIC50 (U-118-MG; Homo sapiens, U-118-MG): < 4.49
- pIC50 (CHL-1; Homo sapiens, CHL-1): 5.66
- pIC50 (NCI-H1694; Homo sapiens, NCI-H1694): 4.64
- pIC50 (8305C; Homo sapiens, 8305C): 5.40
- pIC50 (EHEB; Homo sapiens, EHEB): 5.01
- pIC50 (CMK; Homo sapiens, CMK): 5.32
- pIC50 (NCI-H441; Homo sapiens, NCI-H441): 5.17
- pIC50 (CAL-27; Homo sapiens, CAL-27): 5.50
- pIC50 (AGS; Homo sapiens, AGS): 5.27
- pIC50 (SK-HEP1; Homo sapiens, SK-HEP1): 5.54
- pIC50 (GMS-10; Homo sapiens, GMS-10): 4.70
- pIC50 (SR; Homo sapiens, SR): 5.30
- pIC50 (Hs-578T; Homo sapiens, Hs-578T): 4.94
- pIC50 (T47D; Homo sapiens, T47D): 4.57
- pIC50 (NCI-H727; Homo sapiens, NCI-H727): 5.69
- pIC50 (UACC-893; Homo sapiens, UACC-893): 5.51
- pIC50 (NCI-H2030; Homo sapiens, NCI-H2030): 5.35
- pIC50 (YKG-1; Homo sapiens, YKG-1): 5.25
